Here are results for one compound from US10472352B2, “Rac inhibitors” (Geneyus LLC, priority 2017, dated 2019).

The pIC50 is the negative decadic logarithm of the IC50, by convention in mol/L. Higher therefore signals a low IC50.

pIC50: −log10 of the molar value.

Experiment [1] relates to estrogen receptor response genes Cyclin D1 and pS2 in MCF7 breast cancer cells. The experiment in a line: Inhibition of Estrogen Receptor Target Gene Protein Expression (immunoblot). The format is cell-based. Conditions: MCF7, 10 nM E2, 18 hours. The protocol:
After 18 hours, protein was harvested. SDS-PAGE followed by immunoblotting of samples was performed using standard techniques. Protein lysates were immunoblotted for Estrogen Receptor (ER), Cyclin D1, pS2, and Actin.

The test system of the next experiment is MCF7 breast cancer cells. The experiment in a line: Tumor Burden, MCF7 tumors in mice. The format is in vivo, Nod/Scid-gamma null immunocomprimised mice. The method, then:
MCF7 breast cancer cells grown were innoculated into Nod/Scid-gamma null immunocomprimised mice. The resulting tumors were allowed to reach approximately 100 mm^3 in size and then mice were randomized into vehicle, Faslodex®, 0032661, or Faslodex® plus 0032661 treatment groups. Faslodex® treated mice were dosed with 500 ug Faslodex® once a week via intramuscular injection. 0032661 treated mice were dosed with 35 mg/kg 0032661 five days a week via intraparatoneal injection. Tumors were measured by calipers twice a week.

The test system of experiment [2] is estrogen receptor response gene (SDF) in MCF7 breast cancer cells. In words: Inhibition of Estrogen Receptor Target Gene Transcription (SDF qPCR). Conditions: MCF7, 10 nM estradiol, 4 hours. It counts as cell-based. The protocol:
After 4 hours, RNA was harvested and converted into cDNA. qPCR analysis for SDF was performed on all samples and normalized to expression of GAPDH. The data, shown in FIG. 7, is expressed as fold change relative to SDF expression of the cFBS sample.
For orientation: Real-time PCR tracks product formation cycle by cycle.

Experiment [3] concerns androgen receptor response gene (PSA) in LNCaP prostate cancer cells. The experiment in a line: Inhibition of Androgen Receptor Target Gene Transcription (PSA qPCR). The format is cell-based. Conditions: 10 nM DHT, 4 hours, 10 uM bicalutamide, 10 uM enzalutamide, 12.5 or 25 uM 0032661. The protocol:
After 4 hours, RNA was harvested and converted into cDNA. qPCR analysis for PSA was performed on all samples and normalized to expression of GAPDH. The data, shown in FIG. 11, is expressed as fold change relative to PSA expression of the cFBS sample.

Experiment [4] concerns MCF-7 human breast cancer cell line. The experiment in a line: Cell Viability Assay (MCF7), PrestoBlue. The format is cell-based. Conditions: MCF7, 72 h, MCF-7 cells, three days after drug treatment. In short, it runs like this: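 MCF-7 cells seeded 24 hours before dosing with 0 to 200 μM compound (11 concentrations, 1% DMSO final) for three days. PrestoBlue (resazurin) added to 10% final, 1 hour incubation, fluorescence at ex 560/em 590 nm; percentage living cells relative to control wells.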

Experiment [5] has as its system PSA in LNCaP prostate cancer cells. In words: Inhibition of Increased Protein Levels of PSA (immunoblot). It counts as cell-based. Conditions: 10 nM DHT, 18 hours, 5 uM enzalutamide, 10, 15 or 20 uM 0032661. The protocol: After 18 hours protein was harvested. SDS-PAGE followed by immunoblotting of samples was performed using standard techniques. Protein lysates were immunoblotted for the Androgen Receptor (AR), PSA, and Actin.
(In general: Immunoblotting shows a protein as a band on a membrane.)

A further experiment deals with T1, Rac1 protein (Homo sapiens, UniProt P63000).
T1 construct: purchased Cytoskeleton Inc. RC01
In words: Fluorescence Polarization Assay (Rac1 FP). The format is binding. Conditions: 125 nM his-tagged Rac1, 12.5 nM Bodipy-TR GTPγS, 30 minutes at 37° C. A digest of the protocol:
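His-tagged recombinant Rac1 (125 nM final) plus 12.5 nM Bodipy-TR GTPγS incubated with serially diluted compound for 30 min at 37 °C. Buffer: 20 mM Tris pH 7.5, 50 mM NaCl, 1 mM MgCl, 1 mM EDTA. Fluorescence polarization read at 590/625 nm excitation/emission.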

Experiment [6] has as its system Androgen Receptor (AR) luciferase reporter in LNCaP prostate cancer cells. In words: LNCaP ARE Luciferase Assay. It counts as cell-based. Conditions: 10 nM DHT, 4 hours, 1 uM bicalutamide, 1 uM enzalutamide, 5 or 10 uM 0032661. The protocol: (§1) LNCaP prostate cancer cells as well as LNCaP cells that overexpress the oncogenic androgen receptor splice variant (designated ARV7) were engineered to express an Androgen Receptor (AR) luciferase reporter (SABiosciences). […] After 4 hours, cell lysate was harvested. 50 μg protein lysates were used in a luciferase assay.

For experiment [7] the test system is unchanged. The experiment in a line: Inhibition of Androgen Receptor Luciferase Expression. It counts as cell-based. Conditions: 10 nM DHT, 4 hours, 1 uM bicalutamide, 1 uM enzalutamide, 5 or 10 uM 0032661. The method, then:
After 4 hours, cell lysate was harvested. 50 μg protein lysates were used in a luciferase assay. The data, shown in FIG. 12, is expressed as relative luciferase units (RLU).

In experiment [8] the test system is androgen receptor splice variant (ARV7) in LNCaP cells. In words: LNCaP ARE Luciferase Assay, ARV7 cells. The format is cell-based. Conditions: LNCaP cells overexpressing ARV7, 10 nM DHT, 4 hours; 5 or 10 uM 0032661. The protocol: as §1
Experiment [9] deals with His-Rac1 / GST-PBD (PAK Binding Domain) (Homo sapiens, UniProt P63000). The experiment in a line: Rac Activation AlphaScreen Assay (Rac1 AS). It counts as biochemical. Conditions: 500 nM GTPγS, 37° C., 1 hour; 'positive' = signal generated was higher than the positive control. The protocol:
AlphaScreen® assays were performed in 96-well microplates in a final reaction volume of 60 μl. Recombinant His-Rac1, recombinant GST-PBD (PAK Binding Domain), donor and acceptor beads (PerkinElmer), and inhibitors were incubated in exchange buffer (20 mM Tris pH 7.5, 50 mM NaCl, 1 mM MgCl2, 1 mM EDTA, 500 nM GTPγS (guanosine 5′-[γ-thio]triphosphate)) at 37° C. Readings were performed on a Tecan M1000 pro microplate reader after 1 hour.

The mark [10] stands for this setting: 1 uM fulvestrant, 5 or 10 uM 0032661.

As to `FC(F)(F)c1ccc2c(SCCCCCCn3cnc(CN4CCOCC4)c3)ccnc2c1` [Compound 0032661, 4-[[1-[6-[[7-(trifluoromethyl)-4-quinolyl]sulfanyl]hexyl]imidazol-4-yl]methyl]morpholine], the “estrogen receptor target gene protein expression, combination” value in experiment [1] (1 uM fulv plus 5 uM 0032661) was “reduces estrogen receptor target gene protein expression more than either single treatment alone”. For the same compound, the “protein levels of estrogen receptor target genes (Cyclin D1, pS2)” value in experiment [1] (setting [10]) is on record as “inhibit the increase in protein levels of estrogen receptor target genes”. Besides, in the experiment on MCF7 breast cancer cells (500 ug Faslodex once a week intramuscular plus 35 mg/kg 0032661 five days a week), the “tumor burden, combination” value is “reduces tumor burden more than either single treatment alone”. In addition, in the experiment on MCF7 breast cancer cells (35 mg/kg five days a week, intraperitoneal), the “anti-tumoral effect (tumor size by calipers)” value is given as “strong anti-tumoral effects”. Besides, the “SDF gene expression, combination” value in [2] (1 uM fulvestrant plus 5 uM 0032661) was “reduces SDF gene expression more than either single treatment alone”. The “estrogen receptor target gene transcription (SDF)” value in experiment [2] (setting [10]) is recorded as “inhibit the estrogen receptor target gene transcription”. The “androgen receptor target gene transcription (PSA)” value in experiment [3] is “inhibit the androgen receptor target gene transcription”. Besides, the pIC50 in [4] is 5.18; against Rac1 protein, 5.49; in [9] it was 4.35. Further, in experiment [5], the “increase in protein levels of PSA” value is “inhibit the increase in protein levels of PSA”. In addition, in experiment [6], the “androgen receptor luciferase expression (fold activation)” value is given as “inhibit the androgen receptor luciferase expression”. Further, in experiment [7], the “androgen receptor luciferase expression (RLU)” value is “inhibit the androgen receptor luciferase expression”. Moreover, in experiment [8], the “luciferase expression of the ARV7 splice variant” value was “inhibited luciferase expression of the ARV7 splice variant”.
